Measured values from ChEMBL document CHEMBL1142729 (J Med Chem, 2005).

Columns and labels:
Carbonic anhydrase 2 = Carbonic anhydrase 2 (Homo sapiens, UniProt P00918); assay: Inhibitory constant value for Carbonic anhydrase II in human determined in pH-shift assay
[1] = Inhibition concentration for carbonic anhydrase I and carbonic anhydrase II in rat determined in CO2 hydration assay

IC50 [1]	SMILES	IC50 (Carbonic anhydrase 2)
	NS(=O)(=O)OCC1Oc2ccccc2O1	0.28 µM
8.9 µM	CC1(C)O[C@@H]2[C@@H](CO[C@@]3(COS(N)(=O)=O)OC(C)(C)O[C@@H]23)O1 [TOPIRAMATE]	
